This note sets out measurements from the pKa sets of Baltruschat and Czodrowski (2020).

Broadly, the pKa is the negative logarithm of the acid dissociation constant.

`SCCNCCc1ccccc1` registered a pKa (basic group) of 8.11. `Oc1ccnc([Se-])[nH+]1` gave a pKa (acidic group) of 7.18. Consider `Nc1cccc2nn([C@@H]3C[C@@H](O)[C@H](CO)O3)nc12`, for which the pKa (basic group) turned out to be 2.4. In the case of `Nc1nc(C(F)(F)F)c2[nH]cnc2n1`, the pKa was determined as 8.87 (acidic group) and 1.85 (basic group). `C=CC(=O)OCCN(CC)CC` yielded a pKa (basic group) of 8.55. Turning to `COCC1=C(C(=O)O)C2C=CC1C2` (configuration not stated), the pKa (acidic group) was found to be 4.59.

For the compound `CNc1nc2ncncc2[nH]1`, the pKa (acidic group) was found to be 9.56 and the pKa (basic group) was found to be 4.78. As to `Cc1[nH]ccc1C(=O)O`, the pKa (acidic group) was 5.8.

Take `O=C([O-])CS`: the pKa (acidic group) was determined as 10.2.

`CCOc1ccc2nc3cc([N+](=O)[O-])ccc3c(N)c2c1` had a pKa (basic group) of 7.5. On to `c1ccc([P+](c2ccccc2)(c2ccccc2)C2c3ccccc3-c3ccccc32)cc1`, for which, for the setting “acidic group”, the pKa turned out to be 8.99. `COc1ccccc1C(=O)N[C@@H]1C[C@H]2CC[C@@H](C1)N2Cc1ccccc1` had a pKa (basic group) of 8.88. For the compound `COc1ccc(C(=S)Nc2ccc(Br)cc2)cc1`, for the setting “acidic group”, the pKa amounted to 10.9. Still for that read-out and setting: as for `CCCS(=O)O`, the figure is 2.35; as for `COc1cccc(O)c1O`, 9.28; as for `COc1ccc(CC(=O)O)cc1`, 4.36. Same read-out and setting: as for `[O-]c1ccc2ccccc2[n+]1O`, the figure is 6.88.

`Oc1cccc(O)c1O`: where the note is “acidic group”, the pKa came out at 8.97.

As to `CCC/C=C(\C)C(=O)O`, the pKa (acidic group) stood at 5.13.

Consider `COc1cc2c(cc1OC)[C@@H]1Cc3ccc(OC)c(O)c3[C@H](C2)N1C`, for which the pKa (acidic group) is 9.85. Turning to `Oc1ccccc1-c1ccccn1`, the pKa (acidic group) is 10.6 and the pKa (basic group) was determined as 4.2. Compound `N#Cc1ccc(O)c(O)c1` came in with a pKa (acidic group) of 7.72.

`CC1=CC(=O)CC(=O)O1` yielded a pKa (acidic group) of 5. `Cc1ccc(CN2CC(O[Si](C)(C)C)C2)cc1`: the pKa (basic group) came out at 8.24. Take `[NH3+][C@@H](Cn1cccn1)C(=O)O`: the pKa (acidic group) amounted to 2.2.

`CCOC(=O)c1cc(-c2ccccc2)nnc1NCC[NH+]1CCOCC1` had a pKa (basic group) of 1.5. The same measure, in the same setting: as for `CN(C)CC[N-]S(=O)(=O)c1cccc2c(N(C)C)cccc12`, the figure is 10.9. As for `[NH3+]CCCCCc1ccncc1`, the pKa (basic group) worked out at 5.99.

For the compound `CCN(CC)CCNc1ccnc2ccccc12`, the pKa (basic group) turned out to be 8.95. Take `C[N+]1(CCCCCC(=O)O)CCCCC1`: the pKa (acidic group) stood at 4.44.

Consider `O=[N+]([O-])c1[nH]cnc1Cl`, for which the pKa was 5.9 (acidic group) and -1.3 (basic group). `O=C(CCN1CCOCC1)c1cccc([N+](=O)[O-])c1` yielded a pKa (basic group) of 6.5. For the setting “acidic group”, `CC[NH+](CC)CCOc1ccccc1C(=O)NO` came in with a pKa of 8.42. As to `Nc1cccc2ccncc12`, under “basic group”, the pKa came to 6.06. On to `CN(C)C(=O)CS`, for which, where the note is “acidic group”, the pKa stood at 8.1. The same measure, in the same setting: as for `CC(C)=CC(=O)/C=N/O`, the figure is 8.9. In turn, `NCCCNCCCN` showed a pKa (basic group) of 10.7.

In turn, `C[NH+](C)CCC/N=C(\c1ccccc1)c1ccc2ccccc2c1` gave a pKa (basic group) of 5.1. Turning to `Nc1c[nH]nc1[N+](=O)[O-]`, where the note is “acidic group”, the pKa was found to be 9.5. The compound `COc1ccc(O)c(C)c1` had a pKa (acidic group) of 10.2. For the setting “basic group”, `CN(C)c1ncc([N+](=O)[O-])s1` came in with a pKa of 0.48. Still for that read-out and setting: as for `Cc1nc(N)c2cnn(-c3ccccc3)c2n1`, the figure is 4.52; as for `O=C([O-])CSc1nc2cc3c(cc2[nH]1)CCCC3`, 5.2.

For the setting “acidic group”, `CS(=O)O` gave a pKa of 2.35. Same read-out and setting: as for `COc1c(C)cccc1C(=O)O`, the figure is 3.84.

Turning to `Oc1ccc2nc3ccccc3nc2c1`, the pKa runs as follows: (acidic group) 7.45; (basic group) 2.6. Regarding `O=c1cnn([C@H]2O[C@@H](CO)[C@H](O)[C@@H]2O)c(=O)[nH]1`, the pKa (acidic group) is 6.6.

In turn, `Cc1cc(C)nc(N)c1` came in with a pKa (basic group) of 7.84. On to `C[Si](C)(CN)c1ccccc1`, for which the pKa (basic group) came out at 10.4. Same read-out and setting: as for `CCNC(=O)C1CCCCN1` (configuration not stated), the figure is 8.6; as for `Cc1cc2ncn([C@H]3OC[C@H](O)[C@H](O)[C@@H]3O)c2cc1C`, 4.7. Regarding `[O-]c1cccnn1`, the pKa (basic group) amounted to 10.5. The compound `Oc1ccccc1C1=[NH+]CCN1` had a pKa (acidic group) of 6.63. Same read-out and setting: as for `O=C(O)c1c[nH]c2ccccc12`, the figure is 5.27; as for `COc1nc(C)cc(O)[nH+]1`, 1.6; as for `O=C(O)C[NH2+]CCc1nnn[nH]1`, 3.28. In turn, `C[NH+](C)CCCCNc1c2ccccc2nc2cccc([N+](=O)[O-])c12` displayed a pKa (basic group) of 6.9. Still for that read-out and setting: as for `CCCc1ncc[nH]1`, the figure is 8.02; as for `Nc1nc([O-])nc2nc[nH]c12`, 8.99; as for `CCCc1c(O)n[nH]c1C`, 2.8. On the same count and under the same terms, as for `Cc1cc(-c2ccccc2)n[n+](CCN2CCOCC2)c1N`, the figure is 4.84. `O=C(O)C1CCCc2ccccc2O1` (configuration not stated) gave a pKa (acidic group) of 3.63. On the same count and under the same terms, as for `O=C(O)CSc1ccc(S)cc1`, the figure is 3.77. In turn, `Oc1ccc(C2NCCS2)cc1` (configuration not stated) came in with a pKa (basic group) of 5.5. Still for that read-out and setting: as for `CCOCCNc1cccc(OC)c1`, the figure is 3.67; as for `C=C(C)C(=O)OCCNC(C)C`, 9.13; as for `Cc1ccc(CN)cc1`, 9.51. The same measure, in the same setting: as for `Cc1c(Cn2ccnc2)n(C)c2ccc(C(=O)[O-])cc12`, the figure is 6.32; as for `Nc1nc(NCO)nc(NCO)n1`, 4.65; as for `C1CNCCSCC[NH2+]C1`, 3.23. Still for that read-out and setting: as for `COc1ccc(CC(C)N)cc1` (configuration not stated), the figure is 9.53. Turning to `c1c[nH+]c(Cc2nc(Cc3c[nH]c[nH+]3)c[nH]2)[nH]1`, the pKa (basic group) was determined as 3.94.

Consider `CCCCNCc1ccc(C)cc1`, for which the pKa (basic group) came to 9.98.

As to `Cc1ccc(O)c(C(C)C)c1`, the pKa (acidic group) was determined as 10.7. On the same count and under the same terms, as for `O=P([O-])([O-])C([NH2+]Cc1cccnc1)c1ccccc1O` (configuration not stated), the figure is 10.2. In turn, `S=C(Nc1ccc(Br)cc1)c1ccc(Cl)cc1` returned a pKa (acidic group) of 10.2. Take `C[C@@H](C=C(c1ccccc1)c1ccccc1)N(C)C`: the pKa (basic group) stood at 9.26. `Nc1nnc(-c2ccccc2)s1` returned a pKa (basic group) of 2.9. In the case of `c1ccc2c(c1)[nH]c1c2cc[n+]2cc3c(cc12)CCCC3`, the pKa (acidic group) is 10.6.

Compound `Cc1ccc(C[n+]2ccc(C(=O)Cc3ccccc3)cc2)cc1` came in with a pKa (acidic group) of 8.91. The compound `O=C(O)C#CC[NH+]1CCOCC1` registered a pKa (acidic group) of 1.79.

For the compound `[NH3+]CCc1ccc(O)cc1`, under “acidic group”, the pKa amounted to 9.42. Still for that read-out and setting: as for `Cc1ccc2c(c1)C([P+](c1ccccc1)(c1ccccc1)c1ccccc1)c1ccccc1-2` (configuration not stated), the figure is 9.38. In turn, `O=C([O-])CN(CC(=O)[O-])Cc1nc2ccccc2[nH]1` had a pKa (basic group) of 6.87. In the case of `CC1CC(=O)N(O)C1(C)C` (configuration not stated), for the setting “acidic group”, the pKa came to 8.85. In the case of `Oc1ccc(Cl)cc1CN1CCCC1`, the pKa (basic group) worked out at 11.7.

As to `Oc1cccc2cnccc12`, the pKa runs as follows: (acidic group) 8.45; (basic group) 5.4. In the case of `Cc1nc2c(=O)[nH]c(=O)[nH]c2n1C`, for the setting “acidic group”, the pKa was found to be 6.2. Under “basic group”, `N#Cc1ccc(CN)cc1` registered a pKa of 8.72. Same read-out and setting: as for `O=C(/C=C1/C=CC=CN1)c1ccccc1`, the figure is 6.08. For the setting “basic group”, `NCc1ccc(Cl)cc1[N+](=O)[O-]` registered a pKa of 8.34. `O=[N+]([O-])c1ccc([O-])c(CN2CCOCC2)c1` yielded a pKa (basic group) of 7.92. Consider `Cn1ccnc1CS`, for which the pKa amounted to 8.88 (acidic group) and 6.31 (basic group). `O=S(Cc1ccccc1)c1cnn[nH]1` (configuration not stated): for the setting “acidic group”, the pKa amounted to 6.09. Regarding `O=c1cc(O)c2ccccc2o1`, where the note is “acidic group”, the pKa was 4.1. `SCc1c[nH]cn1` showed a pKa (acidic group) of 9.54 and a pKa (basic group) of 6.54.

As to `N#CC(C#N)=C(C#N)C(C#N)C#N`, where the note is “acidic group”, the pKa was found to be 1.9. In the case of `Cc1cccc(C)n1`, the pKa (basic group) amounted to 6.85. As to `C[n+]1ccc2ccc(O)cc2c1`, the pKa (acidic group) came out at 7.09. On to `CC1NCCc2c1[nH]c1ccc(Cl)cc21` (configuration not stated), for which the pKa (acidic group) was determined as 15.2.

In turn, `O=C(Cc1ccccc1)c1cc[n+](Cc2ccc([N+](=O)[O-])cc2)cc1` had a pKa (acidic group) of 8.68. In turn, `C[NH+]1CCC(NN)CC1` yielded a pKa (basic group) of 5.7. Same read-out and setting: as for `Clc1ccc2[nH]cnc2c1`, the figure is 4.86; as for `C(=C/c1nnnn1-c1ccccc1)/c1ccccc1`, -2.81.

Compound `CCCCCCCN(CCCCCCC)c1ccccc1` displayed a pKa (basic group) of 3.33. The same measure, in the same setting: as for `COc1ccc(-c2cn3ccnc3[nH]2)c(OC)c1`, the figure is 6.76; as for `CC[NH2+]CCN`, 7.52. For the compound `Oc1ccccc1-c1ccccc1O`, the pKa (acidic group) was determined as 7.5. The compound `Nc1cccc2cc3ccccc3nc12` showed a pKa (basic group) of 4.4. Where the note is “acidic group”, `Cc1ccc(C(=O)O)cc1[N+](=O)[O-]` had a pKa of 3.62. As for `CCN(CC)CCNc1nc(C)nc(Nc2ccc(Cl)cc2)n1`, the pKa (basic group) was determined as 9.3.

Consider `[O-][n+]1cccc(O)c1`, for which the pKa (acidic group) stood at 6.4. In turn, `OCCCCc1ccncc1` gave a pKa (basic group) of 6.01. As for `Nc1ccc(Br)cc1Br`, the pKa (basic group) is 2.3.

Compound `O=c1cccc(O)cc1O` yielded a pKa (acidic group) of 5.76. `N/C(=N\O)C(N)Cc1ccccc1` (configuration not stated) came in with a pKa (basic group) of 7.06. The same measure, in the same setting: as for `C1CCN(N2CCCCC2)CC1`, the figure is 7.09; as for `CC(C)([NH3+])C(N)=S`, -8.75.

Consider `Cn1cccn1`, for which the pKa (basic group) worked out at 2.48. Still for that read-out and setting: as for `Nc1ccccc1N`, the figure is 4.43. Take `Oc1ccc(O)c(Cl)c1`: under “acidic group”, the pKa came to 8.81. `NCCCC(=O)[O-]` registered a pKa (basic group) of 10.5. Same read-out and setting: as for `NCc1ccc(N)cc1`, the figure is 10; as for `CNCc1ccccn1`, 8.96. For `CC[C@@H]1OC(=O)[C@@H](C)[C@H](O)[C@@H](C)[C@H](O[C@H]2O[C@@H](C)C[C@@H]([N+](C)(C)O)[C@@H]2O)[C@]2(C)C[C@H](C)C3(O[C@]1(C)C=C3C)O2`, under “acidic group”, the pKa stood at 4.3.

Where the note is “acidic group”, `Cn1n[n+](C)nc1N` returned a pKa of 2.5. On to `COc1ccccc1/C(=N/CCCN(C)C)c1ccccc1`, for which the pKa (basic group) amounted to 9. Still for that read-out and setting: as for `CCN(CC)CC(=O)NC1c2ccccc2-c2ccccc21`, the figure is 7.98. For `Cc1ccc(C(=S)Nc2ccccc2)cc1`, where the note is “acidic group”, the pKa was determined as 11.5. `O=P1(O)CCCC1` came in with a pKa (acidic group) of 2.51. The same measure, in the same setting: as for `O=C(O)c1ccc(Br)s1`, the figure is 3.3.

`c1ccc(-c2cc(-c3ccccc3)c(NCCN3CCOCC3)nn2)cc1`: the pKa (basic group) amounted to 6.81. For the compound `Oc1ccc2ccc3ccccc3c2c1`, the pKa (acidic group) was determined as 9.28. The compound `[NH3+]CCCc1ccccn1` had a pKa (basic group) of 4.98.
